Test results published in publication PMC10135567, “New Indole-3-Propionic Acid and 5-Methoxy-Indole Carboxylic Acid Derived Hydrazone Hybrids as Multifunctional Neuroprotectors” (Antioxidants, 2023).
Entries after “also recorded” stand apart in the source; their conditions may differ.

What was measured:
[1] = Superoxide radical scavenging, xanthine/xanthine oxidase/NBT system; format: biochemical; details: for decrease of NBT reduction as compared to the controls: 100 µM (highest tested concentration); for absorbance ratio (NBT reduction, % of control): 1, 10, 50 and 100 µM; for increase of absorbance ratio as compared to the controls: 100 µM
Method: The 1 mL cuvette for the control contained 1 mM xanthine, 20 µL xanthine oxidase (100 IU/L), and 0.04 mM NBT [43, 44]. In the sample compositions, the tested hydrazones at different concentrations were added. All measurement compositions were incubated at 37 °C, and the absorbance was determined spectrophotometrically at 560 nm via Shimadzu UV-1601 UV-vis spectrophotometer.
The potential capability of the investigated compounds to prevent the superoxide-anion radical-induced NBT reduction was investigated spectrophotometrically by xanthine-oxidase assay. The assay was carried out at the final concentration of the tested compounds, at 1, 10, 50, and 100 µM.

[2] = O-phenanthroline Fe(II) chelation test; format: physicochemical; details: 200 µM compound, FeCl2
Method: The Fe (II)-chelating activity of the tested hydrazones was determined by the O-phenanthroline method. A total of 1 mL sample solutions of 50 mM PB pH 7 contained 0.2 mM O-phenanthroline and 0.05 mM FeCl2 and 0.2 mM hydrazone. In the controls, the tested compounds were omitted. Absorbance was measured at 515 nm via GENESYS 50 UV-VIS spectrophotometer after incubation for 5 min at 37 °C. The data for the sample activity were presented as a percentage of the control measurement. Absorbance spectra of all the samples, the control, and the measurement compositions containing the tested hydrazones and Fe(II) at the concentrations used in the samples were measured.
To explain the results of both systems of Fe(II)-induced oxidative damage, we studied the potency of the tested compounds to chelate-iron (Fe(II)). This was studied by spectrophotometric determination of free iron (Fe(II)) using the ortho-phenanthroline test, as 1,10-phenantroline reacts rapidly with Fe(II) ions in weakly acidic media, generating an orange–red complex (ferroin) with characteristic absorbance spectra (molar absorptivity 1.10.104 (α = 0.20) at ~max 512 nm and a molar ratio 3:1 (R: Fe(II))). The generated complex was stable, and the bound Fe(II) was resistant to oxidation. Lower absorbance of the reaction mixture indicated higher Fe^2+-chelating activity.

[3] = Fe(II)-induced deoxyribose degradation assay; format: biochemical; details: 80 µM, 2-deoxyribose 0.5 mM, 0.1 mM FeCl2; for absorbance ratio, % of the controls (deoxyribose degradation): lower = stronger antioxidant
Method: (§1) The lipid peroxidation assay and a modification of the deoxyribose-degradation assay were used. Two types of measurement compositions in phosphate buffer (PB–K2HPO4/KH2PO4, pH 7.4) were prepared for both tests: (i) samples, containing the biologically relevant molecules (lecithin emulsion or deoxyribose), iron, and the tested hydrazones at the concentrations indicated below the figures; and (ii) controls, in which the tested hydrazones were omitted. The data for the sample activity were presented as a percentage of the control measurement.
The deoxyribose (0.5 mM) damage was induced by adding FeCl2 (0.1 mM). The measurement compositions were incubated at 37 °C for 30 min. The next step comprised adding 0.5 mL of 2.8% trichloroacetic acid and 0.5 mL of thiobarbituric acid. Then, the samples were heated in boiling water for 20 min, and their absorbance was estimated at 532 nm (characteristic band for the generated chromophore) via Shimadzu UV-1601 UV-vis spectrophotometer.

[4] = Fe(II)-induced lipid peroxidation assay (LP assay, TBARS); format: biochemical; details: 90 µM, lecithin 1 mg/mL, 0.1 mM FeCl2; lower = stronger antioxidant
Method: as §1
The thiobarbituric-acid reactive-substance colorimetric test was performed in a model system of Fe(II)-induced lipid peroxidation as an emulsion prepared from egg yolk phospholipids. Each sample contained 1 mg/mL of lecithin. LP was initiated using 0.1 mM FeCl2. After 30 min incubation at 37 °C, 0.5 mL of 2.8% trichloroacetic acid solution and 0.5 mL of 0.5% thiobarbituric acid solution were added, following a second incubation at 100 °C for 20 min. Centrifugation at 3000 rpm for 20 min at 4 °C was performed, and we determined the absorbance value of the supernatant at 532 nm via Shimadzu UV-1601 UV-VIS spectrophotometer.

[5] = test system: isolated rat-brain synaptosomes; test: 6-OHDA-induced neurotoxicity in isolated rat synaptosomes, GSH level; format: cell-based; details: 10 µM pre-incubation 30 min, then 150 µM 6-OHDA 1 h
Method: This neurotoxicity model was based on the metabolism and auto-oxidation of 6-hydroxy dopamine responsible for the reactive oxygen species and quinones generation, ultimately leading to neurotoxicity and neurodegeneration. The experiment was performed by pre-incubation of the synaptosomes with 10 µM of the compounds for 30 min, followed by the addition of 150 µM 6-hydroxy dopamine for induction of neurotoxicity. After 1 h, they were centrifuged twice for 1 min at 15,000 × g. After the second wash, the precipitates were resolved with buffer B and glucose.

COc1cc(C=NNC(=O)CCc2c[nH]c3ccccc23)ccc1O [Compound 3d, N′-(4-Hydroxy-3-methoxybenzylidene)-3-(1H-indol-3-yl)propanehydrazide]
decrease of NBT reduction as compared to the controls [1]: less than 15% | absorbance at 515 nm compared to the controls (Fe(II) chelation) [2]: statistically identical absorbance values at 515 nm, as compared to the controls | pro-oxidant effect above the controls (deoxyribose degradation) [3]: about 10%

COc1cc(C=NNC(=O)CCc2c[nH]c3ccccc23)cc(OC)c1O [Compound 3f, N′-(4-Hydroxy-3,5-dimethoxybenzylidene)-3-(1H-indol-3-yl)propanehydrazide]
decrease of NBT reduction as compared to the controls [1]: less than 15% | absorbance ratio sample/control (lipid peroxidation) [4]: below 65% | absorbance at 515 nm compared to the controls (Fe(II) chelation) [2]: statistically identical absorbance values at 515 nm, as compared to the controls

COc1ccc2[nH]c(C(=O)NN=Cc3cccc(O)c3O)cc2c1 [Compound 5a, N′-(2,3-Dihydroxybenzylidene)-5-methoxy-1H-indole-2-carbohydrazide]
decrease of NBT reduction as compared to the controls [1]: less than 15% | GSH level preserved, as compared to 6-OHDA [5]: 40% | absorbance at 515 nm compared to the controls (Fe(II) chelation) [2]: identical absorbance values, as compared to the controls | absorbance ratio, % of the controls (deoxyribose degradation) [3]: about 50%

COc1ccc2[nH]c(C(=O)NN=Cc3ccc(O)c(O)c3)cc2c1 [Compound 5b, N′-(3,4-Dihydroxybenzylidene)-5-methoxy-1H-indole-2-carbohydrazide]
NBT reduction decreased to ([1]; 10 µM): 20% | absorbance at 515 nm compared to the controls (Fe(II) chelation) [2]: statistically identical absorbance values at 515 nm, as compared to the controls

COc1ccc2[nH]c(C(=O)NN=Cc3ccc(O)cc3O)cc2c1 [Compound 5c, N′-(2,4-Dihydroxybenzylidene)-5-methoxy-1H-indole-2-carbohydrazide]
absorbance ratio (NBT reduction, % of control) [1]: did not influence the estimated absorbance ratio at any of the tested concentrations | absorbance ratio sample/control (lipid peroxidation) [4]: about 45% | absorbance at 515 nm compared to the controls (Fe(II) chelation) [2]: statistically significant changes | absorbance ratio, % of the controls (deoxyribose degradation) [3]: did not induce a modulating effect

COc1ccc2[nH]c(C(=O)NN=Cc3ccc(O)c(OC)c3)cc2c1 [Compound 5d, N′-(4-Hydroxy-3-methoxybenzylidene)-5-methoxy-1H-indole-2-carbohydrazide]
increase of absorbance ratio as compared to the controls [1]: 23% | GSH level preserved, as compared to 6-OHDA [5]: 40% | absorbance at 515 nm compared to the controls (Fe(II) chelation) [2]: statistically identical absorbance values at 515 nm, as compared to the controls | absorbance ratio, % of the controls (deoxyribose degradation) [3]: did not induce a modulating effect

COc1ccc(C=NNC(=O)c2cc3cc(OC)ccc3[nH]2)c(O)c1 [Compound 5e, N′-(2-Hydroxy-4-methoxybenzylidene)-5-methoxy-1H-indole-2-carbohydrazide]
increase of absorbance ratio as compared to the controls [1]: 40% | absorbance ratio sample/control (lipid peroxidation) [4]: about 45% | absorbance at 515 nm compared to the controls (Fe(II) chelation) [2]: statistically significant changes; also recorded: much higher absorbance values than the controls | absorbance ratio, % of the controls (deoxyribose degradation) [3]: did not induce a modulating effect

COc1ccc2[nH]c(C(=O)NN=Cc3cc(OC)c(O)c(OC)c3)cc2c1 [Compound 5f, N′-(4-Hydroxy-3,5-dimethoxybenzylidene)-5-methoxy-1H-indole-2-carbohydrazide]
increase of absorbance ratio as compared to the controls [1]: 8% | absorbance ratio sample/control (lipid peroxidation) [4]: about 45% | absorbance at 515 nm compared to the controls (Fe(II) chelation) [2]: statistically identical absorbance values at 515 nm, as compared to the controls

COc1ccc2[nH]cc(CCNC(C)=O)c2c1 [Melatonin]
GSH level preserved, as compared to 6-OHDA [5]: 90%

N′-(4-Hydroxy-2-methoxybenzylidene)-3-(1H-indol-3-yl)propanehydrazide [Compound 3e]
absorbance ratio (NBT reduction, % of control) [1]: approximately 135% | absorbance at 515 nm compared to the controls (Fe(II) chelation) [2]: statistically significant changes; also recorded: much higher absorbance values than the controls | pro-oxidant effect above the controls (deoxyribose degradation) [3]: about 10%
